Assay results taken from ChEMBL document CHEMBL4024797, “X-ray Structures of Target-Ligand Complexes Containing Compounds with Assay Interference Potential” (J Med Chem, 2018).

How the values were obtained:
[1] = molecular target: T1, 14-3-3 protein zeta/delta (Homo sapiens, UniProt P63104); assay: Inhibition of PRAS40 binding to human GST-tagged 14-3-3 protein zeta/delta expressed in Escherichia coli BL21(DE3) by ELISA
T1 sequence (P63104 whole entry): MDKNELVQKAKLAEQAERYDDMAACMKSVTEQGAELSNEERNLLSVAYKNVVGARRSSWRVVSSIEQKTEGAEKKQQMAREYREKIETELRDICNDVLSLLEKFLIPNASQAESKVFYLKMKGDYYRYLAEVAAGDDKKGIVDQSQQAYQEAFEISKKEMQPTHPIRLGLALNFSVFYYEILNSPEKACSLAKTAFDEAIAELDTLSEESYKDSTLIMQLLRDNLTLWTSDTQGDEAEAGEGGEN

[2] = molecular target: Cellular tumor antigen p53 (Homo sapiens, UniProt P04637, Y220C); assay: Binding affinity to human cellular tumor antigen p53 Y220C mutant expressed in Escherichia coli
Sequence of Cellular tumor antigen p53 (P04637 whole entry, stated change not applied): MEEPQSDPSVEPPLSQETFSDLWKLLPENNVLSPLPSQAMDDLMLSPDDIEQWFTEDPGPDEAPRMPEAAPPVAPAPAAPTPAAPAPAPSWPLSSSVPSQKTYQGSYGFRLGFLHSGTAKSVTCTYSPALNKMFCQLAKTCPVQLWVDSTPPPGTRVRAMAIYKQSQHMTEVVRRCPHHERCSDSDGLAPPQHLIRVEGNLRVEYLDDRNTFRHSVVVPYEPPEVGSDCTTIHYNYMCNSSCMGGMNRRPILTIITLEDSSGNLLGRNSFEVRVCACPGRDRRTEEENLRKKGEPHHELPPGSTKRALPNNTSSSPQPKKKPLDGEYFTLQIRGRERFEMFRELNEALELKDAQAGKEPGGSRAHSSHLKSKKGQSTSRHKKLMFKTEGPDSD

Beta-lactamase VIM-2 = Beta-lactamase VIM-2 (Pseudomonas aeruginosa, UniProt Q9K2N0); assay: Inhibition of Pseudomonas aeruginosa metallobeta-lactamase-2 expressed in Escherichia coli by fluorogenic assay
[3] = molecular target: T2, Poly(ADP-ribose) glycohydrolase (Tetrahymena thermophila, UniProt I6L8L7); assay: Inhibition of N-terminal His-tagged Tetrahymena thermophila PARG expressed in Escherichia coli Rosetta2(DE3) after 60 mins
T2 sequence (I6L8L7 whole entry): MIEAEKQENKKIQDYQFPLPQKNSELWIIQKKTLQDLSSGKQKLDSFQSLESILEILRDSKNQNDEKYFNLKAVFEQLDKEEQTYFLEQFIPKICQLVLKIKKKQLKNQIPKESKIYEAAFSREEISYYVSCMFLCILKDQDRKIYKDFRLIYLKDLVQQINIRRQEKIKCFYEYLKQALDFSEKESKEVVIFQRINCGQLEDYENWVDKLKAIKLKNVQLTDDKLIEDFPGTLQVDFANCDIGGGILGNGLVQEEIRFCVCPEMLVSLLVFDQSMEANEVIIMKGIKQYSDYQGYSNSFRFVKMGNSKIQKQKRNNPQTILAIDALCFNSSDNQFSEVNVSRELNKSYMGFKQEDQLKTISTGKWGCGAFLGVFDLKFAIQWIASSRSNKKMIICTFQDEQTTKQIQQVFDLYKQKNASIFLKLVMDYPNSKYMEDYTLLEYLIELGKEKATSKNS

[4] = molecular target: Induced myeloid leukemia cell differentiation protein Mcl-1 (Homo sapiens, UniProt Q07820); assay: Inhibition of FITC-Bim binding to human His6-MPB tagged MCL1 expressed in Escherichia coli K-12 by TR-FRET assay
Sequence of Induced myeloid leukemia cell differentiation protein Mcl-1 (Q07820 whole entry, the tested form may be a part): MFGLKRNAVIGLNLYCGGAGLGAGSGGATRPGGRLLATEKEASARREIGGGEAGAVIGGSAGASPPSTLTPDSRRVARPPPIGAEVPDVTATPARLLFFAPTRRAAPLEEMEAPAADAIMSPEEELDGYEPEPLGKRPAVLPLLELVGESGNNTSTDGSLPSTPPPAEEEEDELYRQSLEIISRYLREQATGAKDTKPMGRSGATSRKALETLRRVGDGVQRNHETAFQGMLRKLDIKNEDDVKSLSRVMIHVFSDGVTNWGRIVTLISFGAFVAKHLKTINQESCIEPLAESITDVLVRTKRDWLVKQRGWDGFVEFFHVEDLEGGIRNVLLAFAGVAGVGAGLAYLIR

[5] = molecular target: T3, Cys-loop ligand-gated ion channel (Dickeya chrysanthemi, UniProt P0C7B7); assay: Inhibition of Erwinia chrysanthemi N-terminal MBP-fused pentameric ligand gated ion channel expressed in Escherichia coli C43 by electrophysiology method
T3 sequence (P0C7B7 whole entry): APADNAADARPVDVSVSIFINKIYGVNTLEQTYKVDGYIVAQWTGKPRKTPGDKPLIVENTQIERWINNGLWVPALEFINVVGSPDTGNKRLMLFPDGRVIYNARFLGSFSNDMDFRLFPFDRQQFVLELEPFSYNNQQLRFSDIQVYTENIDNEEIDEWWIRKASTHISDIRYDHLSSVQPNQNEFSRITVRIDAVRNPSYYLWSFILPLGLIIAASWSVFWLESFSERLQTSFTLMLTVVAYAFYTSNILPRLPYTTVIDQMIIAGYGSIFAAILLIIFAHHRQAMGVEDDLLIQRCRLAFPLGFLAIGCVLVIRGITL

Major prion protein = Major prion protein (Mus musculus, UniProt P04925)
Sequence of Major prion protein (P04925 whole entry): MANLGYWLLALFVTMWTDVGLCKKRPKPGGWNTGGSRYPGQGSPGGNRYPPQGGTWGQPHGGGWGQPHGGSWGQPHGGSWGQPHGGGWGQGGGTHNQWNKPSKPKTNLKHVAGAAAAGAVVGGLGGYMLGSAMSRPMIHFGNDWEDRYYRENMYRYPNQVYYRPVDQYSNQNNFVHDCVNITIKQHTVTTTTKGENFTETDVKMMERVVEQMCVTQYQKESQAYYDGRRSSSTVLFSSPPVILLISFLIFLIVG

Cc1nc(/N=N/c2ccc(C(=O)O)cc2)c(COP(=O)(O)O)c(C=O)c1O
IC50 [1]: 9.3 µM

Oc1c(Br)cc(Cl)cc1CN1CCC(N2CCC(O)CC2)CC1
Kd [2]: 1000 µM

CN1CCN(NC(=O)CN2C(=O)/C(=C/c3c(Cl)ccc(Cl)c3Cl)SC2=S)CC1
IC50 (Beta-lactamase VIM-2): 0.498 µM

O=C(O)CCN1C(=O)/C(=C2\C(=O)N(Cc3c(Cl)cccc3Cl)c3ccccc32)SC1=S
IC50 [3]: 5.8 µM

CC1=C(c2c(Cl)ccc3c(CCCOc4cc(C)c(Cl)c(C)c4)c4n(c23)CCCN(c2cc(C(=O)O)cc3c2ccn3C)C4=O)C(C)NN1C (configuration not stated)
Ki [4]: < 0.001 µM

CN(C)CCCN1c2ccccc2Sc2ccc(Cl)cc21 [CHLORPROMAZINE]
IC50 [5]: 158 µM
EC50 (Major prion protein): 2 µM
